Data on eight compounds can be found in PubChem BioAssay AID226 (DTP/NCI, 2004).

The assay relates to B6C3F1 mice, intracerebral ependymoblastoma, median survival T/C. Nature of the assay: NCI In Vivo Anticancer Drug Screen. Data for tumor model Ependymoblastoma (intracerebral) in B6C3F1 mice. The conditions noted are these: endpoint: median survival time, higher = longer survival. How it is done:
The antitumor activity of compounds was measured in mice bearing transplantable tumors. Survival or tumor size were measured and the results are expressed as the measurement made in the treated group (T) divided by the measurement made in the vehicle treated control group (C). The tumor model used in this assay is Ependymoblastoma (intracerebral) in B6C3F1 mice

Setting [1] is: dose: 32.0 mg/kg/injection, schedule: Q01DX005 (ip), vehicle: saline.
The mark [2] stands for this setting: dose: 8.0 mg/kg/injection, schedule: Q01DX005 (ip), vehicle: Klucel (hydroxypropylcellulose) (HPC).
[3] abbreviates: dose: 8.0 mg/kg/injection, schedule: Q01DX005 (ip), vehicle: saline.
Where [4] appears, read: dose: 16.0 mg/kg/injection, schedule: Q01DX005 (ip), vehicle: saline.

“And” between values parts separate entries of the source, which are not always exact repeats. Identical values can stand only once. Toxic doses and inconclusive results are not listed.

For `COc1ccc2cc1Oc1ccc(cc1)C[C@H]1c3cc(c(OC)cc3CCN1C)Oc1c(OC)c(OC)cc3c1[C@H](C2)N(C)CC3`, the T/C was 100 % of control (dose: 50.0 mg/kg/injection, schedule: Q01DX005 (ip), vehicle: Klucel (hydroxypropylcellulose) (HPC)); 88 % of control (dose: 100.0 mg/kg/injection, schedule: Q01DX005 (ip), vehicle: Klucel (hydroxypropylcellulose) (HPC)); 108 % of control (dose: 200.0 mg/kg/injection, schedule: Q01DX005 (ip), vehicle: Klucel (hydroxypropylcellulose) (HPC)); 91 % of control (dose: 400.0 mg/kg/injection, schedule: Q01DX005 (ip), vehicle: Klucel (hydroxypropylcellulose) (HPC)).

On to `CC(C)[C@](O)(C(=O)OCC1=CC[N+]2([O-])CC[C@@H](O)[C@@H]12)[C@H](C)O` (stereo partly drawn), for which the T/C is 104 % of control under setting [1]; 98 % of control and 101 % of control (dose: 64.0 mg/kg/injection, schedule: Q01DX005 (ip), vehicle: saline); 95 % of control and 100 % of control (dose: 128.0 mg/kg/injection, schedule: Q01DX005 (ip), vehicle: saline); 103 % of control and 108 % of control (dose: 256.0 mg/kg/injection, schedule: Q01DX005 (ip), vehicle: saline); 94 % of control and 117 % of control (dose: 512.0 mg/kg/injection, schedule: Q01DX005 (ip), vehicle: saline).

Take `Nc1nc([Se])c2ncn(C3OC(CO)C(O)C3O)c2n1` (stereo not drawn): the T/C is 113 % of control (dose: 4.0 mg/kg/injection, schedule: Q01DX005 (ip), vehicle: saline with Tween-80); 102 % of control (dose: 4.0 mg/kg/injection, schedule: Q01DX005 (ip), vehicle: saline); 106 % of control under setting [2]; 109 % of control (dose: 8.0 mg/kg/injection, schedule: Q01DX005 (ip), vehicle: saline with Tween-80); 95 % of control and 105 % of control and 114 % of control under setting [3]; 106 % of control (dose: 16.0 mg/kg/injection, schedule: Q01DX005 (ip), vehicle: Klucel (hydroxypropylcellulose) (HPC)). Further, the T/C reads like this: under setting [4], 102 % of control and 108 % of control; (dose: 32.0 mg/kg/injection, schedule: Q01DX005 (ip), vehicle: Klucel (hydroxypropylcellulose) (HPC)) 106 % of control; under setting [1], 116 % of control and 121 % of control.

Consider `Cc1cn(C2CC(O)C(CO)O2)c(=O)[nH]c1=O` (stereo not drawn), for which the T/C runs as follows: (dose: 64.0 mg/kg/injection, schedule: Q01DX005 (ip), vehicle: suspension in saline) 104 % of control; (dose: 125.0 mg/kg/injection, schedule: Q01DX003 (ip), vehicle: saline with Tween-80) 95 % of control; (dose: 125.0 mg/kg/injection, schedule: Q04DX003 (ip), vehicle: saline with Tween-80) 111 % of control; (dose: 128.0 mg/kg/injection, schedule: Q01DX005 (ip), vehicle: suspension in saline) 94 % of control; (dose: 250.0 mg/kg/injection, schedule: Q01DX003 (ip), vehicle: saline with Tween-80) 99 % of control; (dose: 250.0 mg/kg/injection, schedule: Q04DX003 (ip), vehicle: saline with Tween-80) 113 % of control. Also, the T/C was 95 % of control (dose: 256.0 mg/kg/injection, schedule: Q01DX005 (ip), vehicle: suspension in saline); 95 % of control (dose: 500.0 mg/kg/injection, schedule: Q01DX003 (ip), vehicle: saline with Tween-80); 92 % of control and 120 % of control (dose: 500.0 mg/kg/injection, schedule: Q04DX003 (ip), vehicle: saline with Tween-80); 92 % of control (dose: 512.0 mg/kg/injection, schedule: Q01DX005 (ip), vehicle: suspension in saline); 98 % of control (dose: 800.0 mg/kg/injection, schedule: Q01DX005 (ip), vehicle: saline with Tween-80); 107 % of control (dose: 1000.0 mg/kg/injection, schedule: Q01DX003 (ip), vehicle: saline with Tween-80). Further, the T/C runs as follows: (dose: 1000.0 mg/kg/injection, schedule: Q04DX003 (ip), vehicle: saline with Tween-80) 106 % of control and 112 % of control; (dose: 1024.0 mg/kg/injection, schedule: Q01DX005 (ip), vehicle: suspension in saline) 103 % of control; (dose: 1600.0 mg/kg/injection, schedule: Q01DX005 (ip), vehicle: saline with Tween-80) 101 % of control; (dose: 2000.0 mg/kg/injection, schedule: Q01DX003 (ip), vehicle: saline with Tween-80) 97 % of control; (dose: 2000.0 mg/kg/injection, schedule: Q04DX003 (ip), vehicle: saline with Tween-80) 116 % of control and 89 % of control; (dose: 3000.0 mg/kg/injection, schedule: Q01DX003 (ip), vehicle: saline with Tween-80) 94 % of control. The T/C runs as follows: (dose: 3000.0 mg/kg/injection, schedule: Q04DX003 (ip), vehicle: saline with Tween-80) 94 % of control and 104 % of control; (dose: 3200.0 mg/kg/injection, schedule: Q01DX005 (ip), vehicle: saline with Tween-80) 91 % of control.

`CCCCN(C)N=Nc1c(C(N)=O)n[nH]c1C`: where the note is “dose: 64.0 mg/kg/injection, schedule: Q01DX005 (ip), vehicle: saline with Tween-80”, the T/C was 166 % of control.

On to `C[CH2][Ge]1([CH2]C)[CH2]CC2(CCN(CCCN(C)C)C2)C[CH2]1`, for which the T/C reads like this: under setting [3], 94 % of control and 103 % of control; under setting [4], 96 % of control and 104 % of control and 107 % of control.

As for `Cc1c2ccncc2c(C)c2c1[nH]c1ccccc12`, where the note is “dose: 128.0 mg/kg/injection, schedule: Q01DX001 (ip), vehicle: Klucel (hydroxypropylcellulose) (HPC)”, the T/C is 112 % of control.

`O=C1NC2(CCCCC2)C(=O)N1CCN(CCCl)CCCl`: the T/C reads like this: (dose: 1.0 mg/kg/injection, schedule: Q01DX005 (ip), vehicle: Klucel (hydroxypropylcellulose) (HPC)) 116 % of control; (dose: 1.0 mg/kg/injection, schedule: Q01DX005 (ip), vehicle: saline) 99 % of control and 103 % of control and 107 % of control; (dose: 1.5 mg/kg/injection, schedule: Q01DX005 (ip), vehicle: Klucel (hydroxypropylcellulose) (HPC)) 101 % of control; (dose: 1.56 mg/kg/injection, schedule: Q01DX005 (ip), vehicle: Klucel (hydroxypropylcellulose) (HPC)) 100 % of control; (dose: 2.0 mg/kg/injection, schedule: Q01DX005 (ip), vehicle: Klucel (hydroxypropylcellulose) (HPC)) 99 % of control; (dose: 2.5 mg/kg/injection, schedule: Q01DX005 (ip), vehicle: other) 97 % of control. The T/C (dose: 2.5 mg/kg/injection, schedule: Q01DX005 (ip), vehicle: saline) was 100 % of control; the T/C (dose: 3.0 mg/kg/injection, schedule: Q01DX005 (ip), vehicle: Klucel (hydroxypropylcellulose) (HPC)) is 110 % of control; the T/C (dose: 3.12 mg/kg/injection, schedule: Q01DX005 (ip), vehicle: Klucel (hydroxypropylcellulose) (HPC)) is 101 % of control; the T/C (dose: 4.0 mg/kg/injection, schedule: Q01DX005 (ip), vehicle: Klucel (hydroxypropylcellulose) (HPC)) was 117 % of control; the T/C (dose: 5.0 mg/kg/injection, schedule: Q01DX005 (ip), vehicle: other) is 112 % of control; the T/C (dose: 5.0 mg/kg/injection, schedule: Q01DX005 (ip), vehicle: saline) is 98 % of control. The T/C is 111 % of control (dose: 6.0 mg/kg/injection, schedule: Q01DX005 (ip), vehicle: Klucel (hydroxypropylcellulose) (HPC)); 105 % of control and 88 % of control (dose: 6.0 mg/kg/injection, schedule: Q01DX005 (oral), vehicle: Klucel (hydroxypropylcellulose) (HPC)); 105 % of control (dose: 6.25 mg/kg/injection, schedule: Q01DX005 (ip), vehicle: Klucel (hydroxypropylcellulose) (HPC)); 112 % of control under setting [2]; 98 % of control (dose: 10.0 mg/kg/injection, schedule: Q01DX005 (ip), vehicle: saline); 87 % of control (dose: 12.0 mg/kg/injection, schedule: Q01DX005 (oral), vehicle: Klucel (hydroxypropylcellulose) (HPC)). Moreover, the T/C by setting is: (dose: 24.0 mg/kg/injection, schedule: Q01DX005 (oral), vehicle: Klucel (hydroxypropylcellulose) (HPC)) 92 % of control and 100 % of control; (dose: 48.0 mg/kg/injection, schedule: Q01DX005 (oral), vehicle: Klucel (hydroxypropylcellulose) (HPC)) 101 % of control; (dose: 96.0 mg/kg/injection, schedule: Q01DX005 (oral), vehicle: Klucel (hydroxypropylcellulose) (HPC)) 97 % of control.
